According to patent US12336981B2, “Compounds and compositions for the inhibition of NAMPT” (Valo Health, Inc., priority 2010, dated 2025):
Like-named read-outs stand apart in the source and are kept apart here.

What was measured:
[1] = test system: A2780 cells; assay: In-vitro cell proliferation assay (SRB), A2780 cells; assay type: cell-based; conditions: A2780 cells, 72 hours, read-out: A2780 IC50
Method in brief: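 SRB read-out: 6% TCA fix 1 h at 4° C., stain, Tris solubilize, A570. Media-only background subtracted; % inhibition from two compound concentrations.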

[2] = molecular target: T1, NAMPT (Homo sapiens, UniProt P43490); assay: Biochemical inhibition assay: NAMPT enzymatic reaction, NMN quantified by mass spectrometry; conditions: read-out: Biochem IC50
T1 construct: His tag; host or cells: E. coli
Method in brief: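 Inhibition of E. coli-expressed His-tagged human NAMPT, measured as NMN formation by mass spectrometry after a 30 min room-temperature reaction containing 1 μM NAM, 100 μM PRPP and 2.5 mM ATP.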

[3] = Homo sapiens, A2780, 72 h, SRB assay

T1 sequence (P43490 whole entry): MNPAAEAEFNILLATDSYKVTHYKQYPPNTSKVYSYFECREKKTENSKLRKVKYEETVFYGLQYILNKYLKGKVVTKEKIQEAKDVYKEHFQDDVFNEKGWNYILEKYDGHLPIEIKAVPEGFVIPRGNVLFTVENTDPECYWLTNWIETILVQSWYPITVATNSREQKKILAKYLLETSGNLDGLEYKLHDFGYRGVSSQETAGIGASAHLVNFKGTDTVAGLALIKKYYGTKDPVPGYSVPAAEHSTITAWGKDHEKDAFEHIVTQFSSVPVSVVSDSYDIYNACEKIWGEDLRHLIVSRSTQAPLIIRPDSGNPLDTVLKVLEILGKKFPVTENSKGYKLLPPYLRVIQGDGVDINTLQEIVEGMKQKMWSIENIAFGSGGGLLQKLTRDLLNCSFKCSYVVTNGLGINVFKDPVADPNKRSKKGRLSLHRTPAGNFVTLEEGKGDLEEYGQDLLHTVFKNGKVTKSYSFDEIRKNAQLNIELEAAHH

Row | SMILES | IC50 ([1]; Homo sapiens, A2780, 72 h, SRB) [nM] | IC50 ([2]; NAMPT enzymatic assay) [nM] | IC50 ([2]; NAMPT enzymatic reaction) [nM] | other results
1 | CN(C)c1cnc(S(=O)(=O)c2ccc(CNC(=O)c3ccc4nccn4c3)cc2)cn1 [N-({4-[5-(dimethylamino)pyrazine-2-sulfonyl]phenyl}methyl)imidazo[1,2-a]pyridine-6-carboxamide] | 3.6 | 16 |  | 
2 | O=C(NCc1ccc(S(=O)(=O)c2ccco2)cc1)c1ccc2nccn2c1 [N-{[4-(furan-2-sulfonyl)phenyl]methyl}imidazo[1,2-a]pyridine-6-carboxamide] | 100 to 1000 | 76.2 |  | 
3 | Cc1cc(S(=O)(=O)c2ccc(CNC(=O)c3cnc4[nH]ncc4c3)cc2)c(C)cc1F [N-({4-[(4-fluoro-2,5-dimethylbenzene)sulfonyl]phenyl}methyl)-1H-pyrazolo[3,4-b]pyridine-5-carboxamide] | 45.9 |  | 37.3 | 
4 | CNS(=O)(=O)c1ccccc1S(=O)(=O)c1ccc(CNC(=O)c2cc3cnccc3[nH]2)cc1 [N-[(4-{[2-(methylsulfamoyl)benzene]sulfonyl}phenyl)methyl]-1H-pyrrolo[3,2-c]pyridine-2-carboxamide] |  |  | 76 | IC50 [1, 3]: 202 nM
5 | O=C(NCc1ccc(S(=O)(=O)c2cc(Cl)cc(CO)c2)cc1)c1cc2ccncc2s1 |  |  |  | IC50 ([1]; SRB): 0.8 nM; IC50 [2]: 3.3 nM
6 | Cc1ccc(C)c(S(=O)(=O)c2ccc(CNC(=O)c3cc4ccncc4o3)cc2)c1 | 23.9 |  | 18.1 | 
7 | COc1ccc(C)cc1S(=O)(=O)c1ccc(CNC(=O)c2cc3cnccc3[nH]2)cc1 [N-({4-[(2-methoxy-5-methylbenzene)sulfonyl]phenyl}methyl)-1H-pyrrolo[3,2-c]pyridine-2-carboxamide] |  |  | 12 | IC50 [1, 3]: 3 nM
8 | COc1ccc(F)cc1S(=O)(=O)c1ccc(CNC(=O)c2cc3cnccc3[nH]2)cc1 [N-({4-[(5-fluoro-2-methoxybenzene)sulfonyl]phenyl}methyl)-1H-pyrrolo[3,2-c]pyridine-2-carboxamide] |  |  | 5 | IC50 [1, 3]: 3 nM
9 | O=C(NCc1ccc(S(=O)(=O)c2cc(F)cc(OCC(F)(F)F)c2)cc1)c1cc2cnccc2[nH]1 | 1.9 | 5.6 |  | 
10 | O=C(NCc1ccc(S(=O)(=O)N2CCCCC2)cc1)c1ccc2ncsc2c1 [N-{[4-(piperidine-1-sulfonyl)phenyl]methyl}-1,3-benzothiazole-6-carboxamide] |  |  | 9 | IC50 [1, 3]: 10 nM
11 | CCCOc1ccc(S(=O)(=O)c2ccc(CNC(=O)c3cc4ccncc4o3)cc2)cc1 | 12 |  | 49.5 | 
12 | CCN(CC)C(=O)c1ccc(F)c(S(=O)(=O)c2ccc(CNC(=O)c3cc4cnccc4[nH]3)cc2)c1 | 26.2 | 38.4 |  | 
13 | CCOc1cccc(S(=O)(=O)c2ccc(CNC(=O)c3cc4cnccc4[nH]3)cc2)c1 [N-({4-[(3-ethoxybenzene)sulfonyl]phenyl}methyl)-1H-pyrrolo[3,2-c]pyridine-2-carboxamide] | 3.5 |  | 7.7 | 
14 | O=C(NCc1ccc(S(=O)(=O)c2ccc3nc(C(F)(F)F)cn3c2)cc1)c1cc2ccncc2o1 [N-({4-[2-(trifluoromethyl)imidazo[1,2-a]pyridine-6-sulfonyl]phenyl}methyl)furo[2,3-c]pyridine-2-carboxamide] | 11.9 | 21.2 |  | 
15 | O=C(NCc1ccc(S(=O)(=O)c2cccc(OC(F)(F)F)c2)cc1)c1cc2ccncc2o1 | 6.7 | 3.4 |  | 
16 | O=C(NCc1ccc(S(=O)(=O)c2ccc(Cl)cc2)cc1)c1cc2ccncc2o1 [N-({4-[(4-chlorobenzene)sulfonyl]phenyl}methyl)furo[2,3-c]pyridine-2-carboxamide] | 14.2 |  | 4.9 | 
17 | CCOc1cc(Cl)ccc1S(=O)(=O)c1ccc(CNC(=O)c2ccc3nccn3c2)cc1 | 0.7 |  | 4.1 | 
18 | COc1cc(C)cc(S(=O)(=O)c2ccc(CNC(=O)c3cc4cnccc4[nH]3)cc2)c1 | 2.8 |  | 9.6 | 
19 | O=C(NCc1ccc(S(=O)(=O)c2ccc(Cl)cc2C(F)(F)F)cc1)c1cnc2nccn2c1 | 68.4 | 7.9 |  | 
20 | CC(C)COc1cc(F)cc(S(=O)(=O)c2ccc(CNC(=O)c3cc4ccncc4s3)cc2)c1 | 7.5 | 4.8 |  | 
